Molecules are shown by their SMILES.

Conditions in one data set: not given
As usually defined, the melting point is the temperature of the solid-liquid transition. `COC(=O)C(Cc1ccc(O)cc1)NC(=O)c1ccc(C(=O)NC(Cc2ccc(O)cc2)C(=O)OC)cc1` (stereo not drawn) displayed a melting point of 185 °C.

The compound `COC(=O)C(NC(=O)c1ccc(C(=O)NC(C(=O)OC)C(C)C)cc1)C(C)C` (stereo not drawn) registered a melting point of 115 °C.

For the compound `COC(=O)C(CO)NC(=O)c1ccc(C(=O)NC(CO)C(=O)OC)cc1` (stereo not drawn), the melting point was 169 °C.

The compound `COC(=O)CNC(=S)c1ccc(C(=S)NCC(=O)OC)cc1` displayed a melting point of 86 °C.

Consider `COC(=O)C(C)NC(=S)c1ccc(C(=S)NC(C)C(=O)OC)cc1` (stereo not drawn), for which the melting point was found to be 174 °C.

`COC(=O)C(Cc1ccc(O)cc1)NC(=S)c1ccc(C(=S)NC(Cc2ccc(O)cc2)C(=O)OC)cc1` (stereo not drawn) returned a melting point of 170 °C.

Compound `COC(=O)C(NC(=S)c1ccc(C(=S)NC(C(=O)OC)C(C)C)cc1)C(C)C` (stereo not drawn) came in with a melting point of 160 °C.

On to `COC(=O)C(CO)NC(=S)c1ccc(C(=S)NC(CO)C(=O)OC)cc1` (stereo not drawn), for which the melting point worked out at 179 °C.

On the set-up of a further data set: method as in PMID 16673812. The settings on record: oral administration; cited from earlier work.
A word on the LD50: it is the dose at which mortality reaches 50%. Regarding `O=C(O)c1ccc(C(=O)O)cc1` [TPA, Terephthalic acid], the LD50 is reported as above 5000 mg/kg.

Source of the values: article PMC10385826, “Towards Symmetric Thioamides: Microwave-Aided Synthesis of Terephthalic Acid Derivatives” (Pharmaceuticals, 2023).
